Columns and labels:
Assay type in all cases: in vivo
[1] = test system: Guinea Pig Chronic Obstructive Pulmonary Disease (COPD) Model; experiment: Airway resistance (sRaw) in guinea pig COPD model (cigarette smoke exposure); conditions: 10 mg/kg/day oral; 1 week of cigarette smoke exposure; mean ± SEM of 8 animals
Experimental: (§1) An evaluation was carried out as follows according to a report of Kosuke MORIZUMI, Junichi FUCHIGAMI et al., 2002, The 75th Annual Meeting of the Japanese Pharmacological Society (2002) Abstract No. P-259, “Study of a chronic obstructive pulmonary disease-Effects of theophylline on respiratory function and lung function of guinea pigs in an exposure of cigarette smoke.”
(§2) Male Hartley strain guinea pigs (purchased from Japan SLC, Inc.) were taken in a cigarette exposure holder (RMH-TUBES, manufactured by Muenster Ltd.) to secure them to an exposure chamber (Flow-past type nose-only inhalation chamber, manufactured by Muenster Ltd.), and allowed to inhale cigarette smoke (Hi-Lite, manufactured by Japan Tobacco Inc.) for 60 minutes per day for 5 days in a week, totally 4 weeks using a smoking exposure equipment (Hamburg II, manufactured by Borgwaldt Technik), while the exposure was carried out for 4 days in the 4th week. • (2) Drug Administrations
(§3) Each 0.5% MC suspension of a test drug was orally administered daily in 5 ml/weight (kg) once a day for 25 days from the first day of the exposure. To a sham-exposure group and a control group was orally administered a 0.5% MC suspension in a similar manner. Any oral administrations were carried out 0.5 to 1 hours before exposures on a cigarette-smoke-exposure day or after measurements when measuring respiratory functions. A drug was not administered on the day for measurement of respiratory functions after finishing the 4th week of the exposure. • (3) Measurements of Airway Resistance
Specific airway resistances (sRaw) in guinea pigs were measured during awakening by double-flow plethysmography using general respiratory function analysis system (PULMOS-I, manufactured by M•I•P•S Corp.). Measurements were carried out before the exposure and on the day after finishing the 1st, 2nd, 3rd and 4th weeks of the exposure. Each 100 breathings of respiratory functions were individually measured, and the average values were obtained as measured values. A rate of change of airway resistances was calculated by the following equation. Rate of change of each measured week (%)=100×(a measured value on each measured date−a measured value before starting exposures of cigarette smoke)/a measured value before starting exposures of cigarette smoke

[2] = test system: Guinea Pig Chronic Obstructive Pulmonary Disease (COPD) Model; experiment: Lung functions (FRC, RV) in guinea pig COPD model; conditions: 10 mg/kg/day oral; after 4th week of exposure; mean ± SEM of 8 animals
Experimental: as §1, §2, §3
After measuring airway resistances in the 4th week, animals were cut open their tracheas under urethane-anesthetizing ([…], i.p.), cannulated on the side of lung, fixed by ligation, and measured residual volumes (RV) and functional residual capacities (FRC) by lung functions measuring system (Biosystem for maneuver, manufactured by Buxco Electronics).

[3] = test system: Guinea Pig Chronic Obstructive Pulmonary Disease (COPD) Model; experiment: Inflammatory cells in bronchoalveolar fluid in guinea pig COPD model; conditions: 10 mg/kg/day oral; mean ± SEM of 8 animals
Experimental: as §1, §2, §3
After measuring lung functions, animals were exsanguinated to death and opened the thorax, ligated the left bronchial bifurcation, and then injected saline (2.5 mL) into the right lung and aspirated the same via fixed cannula on measuring lung functions repeatedly in twice (totally 5 mL), and the recovery solution was obtained as a bronchoalveolar lavage fluid (BALF). BALF was centrifuged (230×g, 4° C., for 10 minutes) to give cell pellets. The pellets were suspended in saline (0.5 mL), and to a part of the suspension was added Turk solution (manufactured by Wako Pure Chemical Industries, Ltd.) so as to dilute 10 to 20 folds. Leukocyte numbers per 0.1 μL were measured by a blood cell counting chamber and leukocyte numbers per 1 μL were calculated. Cell suspensions were prepared again, smears were prepared using about 2000 to 3000 total cell numbers, May-Grunwald-Giemsa stain was carried out, leukocyte numbers were counted under the microscope, a ratio of each leukocyte number to total leukocyte number was obtained, and each cell number per 1 μL was calculated based on the ratio. Results are shown in each cell number per 1 μL.

[4] = test system: Guinea Pig Chronic Obstructive Pulmonary Disease (COPD) Model; experiment: Histological investigations of lung in guinea pig COPD model; conditions: 10 mg/kg/day for 25 days; 8 animals
Experimental: as §1, §2, §3
After collection of BALF, trachea and lung were isolated. The ligation site of the left lung was opened, injected neutral formalin buffer into trachea, bronchi and lung at the pressure of 20 cm H2O via cannula fixed on the side of the lung, and the lung tissue was extended to be fixed. According to a conventional method, tissue section samples were produced using posterior lobe of the left lung and hematoxylin-eosin (HE) stain was carried out. Any other lung tissues were stored in neutral formalin buffers. Drug efficacies of the produced tissue samples were evaluated by scoring tissue changes under the microscope. The criteria of scores were shown as follows: −: none, ±: minimal, +: mild, ++: moderate, +++: severe. Each quantification was calculated as 0, 1, 2, 3, 4.

## Cn1c(=O)c2[nH]cnc2n(C)c1=O [theophylline, Theophylline, reference compound]
[1]
  Specific airway resistance (sRaw) % increase from pre value: 15.02 ± 6.73%
[2]
  Functional residual capacity (FRC): 6.916 ± 0.234 mL
  Residual volume (RV): 1.962 ± 0.417 mL
[3]
  Cell number in BALF, Macrophage: 2068 ± 362 cells/μL
  Cell number in BALF, Neutrophil: 1072 ± 322 ^NS cells/μL
  Cell number in BALF, Total: 3578 ± 583 cells/μL
[4]
  Number of animals with grade + (mild): A. Hyperplasia, epithelial cell, bronchus: 0
  Number of animals with grade + (mild): B. Cellular exudation, neutrophil/eosinophil, lumen, bronchiole: 0
  Number of animals with grade + (mild): C. Thickening, alveolar wall: 1
  Number of animals with grade + (mild): D. Accumulation, foamy/macrophage-like cell, alveolus: 1
  Number of animals with grade + (mild): E. Cellular infiltration, neutrophil, alveolus: 0
  Number of animals with grade ++ (moderate): A. Hyperplasia, epithelial cell, bronchus: 0
  Number of animals with grade ++ (moderate): B. Cellular exudation, neutrophil/eosinophil, lumen, bronchiole: 0
  Number of animals with grade ++ (moderate): C. Thickening, alveolar wall: 0
  Number of animals with grade ++ (moderate): D. Accumulation, foamy/macrophage-like cell, alveolus: 0
  Number of animals with grade ++ (moderate): E. Cellular infiltration, neutrophil, alveolus: 0
  Number of animals with grade +++ (severe): A. Hyperplasia, epithelial cell, bronchus: 0
  Number of animals with grade +++ (severe): B. Cellular exudation, neutrophil/eosinophil, lumen, bronchiole: 0
  Number of animals with grade +++ (severe): C. Thickening, alveolar wall: 0
  Number of animals with grade +++ (severe): D. Accumulation, foamy/macrophage-like cell, alveolus: 0
  Number of animals with grade +++ (severe): E. Cellular infiltration, neutrophil, alveolus: 0
  Number of animals with grade ± (minimal): A. Hyperplasia, epithelial cell, bronchus: 1
  Number of animals with grade ± (minimal): B. Cellular exudation, neutrophil/eosinophil, lumen, bronchiole: 0
  Number of animals with grade ± (minimal): C. Thickening, alveolar wall: 0
  Number of animals with grade ± (minimal): D. Accumulation, foamy/macrophage-like cell, alveolus: 1
  Number of animals with grade ± (minimal): E. Cellular infiltration, neutrophil, alveolus: 1
  Number of animals with grade − (none): A. Hyperplasia, epithelial cell, bronchus: 7
  Number of animals with grade − (none): B. Cellular exudation, neutrophil/eosinophil, lumen, bronchiole: 8
  Number of animals with grade − (none): C. Thickening, alveolar wall: 7
  Number of animals with grade − (none): D. Accumulation, foamy/macrophage-like cell, alveolus: 6
  Number of animals with grade − (none): E. Cellular infiltration, neutrophil, alveolus: 7
